Tests used:
[1] = system: sweet corn (Zea mays var. rugosa) cultivar 'Incredible'; test: Content analysis of sweet corn ears: crude protein, amino acids, detergent fiber, fatty acids, minerals (Example 1); type: in vivo; conditions: POST at b59 rates; every treatment incl. check also got atrazine 560 g ai/ha + COC 1% v/v; relative to treated check (atrazine), check=0
Source text: Herbicide treatments were applied in a water carrier at 23 gallons of solution per acre on a field site near Knoxville, Tenn. and Painter, Va. Treatments include the following: 1) nicosulfuron at 35 g ai/ha (Accent); 2) mesotrione at 105 g ai/ha (Callisto); 3) nicosulfuron at 35 g ai/ha+mesotrione at 105 g ai/ha (Callisto+Accent); 4) tembotrione at 92 g ai/ha+isoxadifen-ethyl at 46 g ai/ha (Laudis); 5) topramezone at 15 g ai/ha (Impact); 6) nicosulfuron at 35 g ai/ha+isoxadifen-ethyl at 9 g ai/ha (Accent Q); 7) nicosulfuron at 35 g ai/ha+isoxadifen-ethyl at 9 g ai/ha+topramezone at 15 g ai/ha (Accent Q+Impact); 8) nicosulfuron 35 g ai/ha+isoxadifen-ethyl at 9 g ai/ha+mesotrione at 105 g ai/ha (Accent Q+Callisto); 9) treated check (atrazine or Aatrex). All treatments included a PRE application of atrazine plus metolachlor in order to maintain weed free conditions. In addition, all POST treatments (including the treated check) included atrazine at 560 g ai/ha and crop oil concentrate at 1% v/v. […] Sweet corn was harvested from the center two rows of each four row plot and weighed in the husk.

[2] = system: sweet corn variety 'Incredible'; test: Sugar and key antioxidant content of sweet corn (Example 1, Table 15); type: in vivo, Zea mays var. rugosa; conditions: rates g ai/ha: Nicosulfuron 35, Mesotrione 105, Topramezone 18, Isoxadifen-ethyl 13, all incl. treated check with atrazine 560 g ai/ha + 1% v/v crop oil concentrate
Source text: Herbicide treatments were applied in a water carrier at 23 gallons of solution per acre on a field site near Knoxville, Tenn. and Painter, Va. […] All treatments included a PRE application of atrazine plus metolachlor in order to maintain weed free conditions. In addition, all POST treatments (including the treated check) included atrazine at 560 g ai/ha and crop oil concentrate at 1% v/v. […] Sweet corn was harvested from the center two rows of each four row plot and weighed in the husk.

[3] = system: sweet corn cultivars 'Merit', 'Temptation', 'Incredible'; test: Kernel carotenoids of sweet corn after mesotrione and atrazine (Example 3); type: in vivo; set-up: Kernel carotenoids: Lutein / Kernel carotenoids: Zeaxanthin: unit not given here; conditions: mesotrione 105, atrazine 560 g ai/ha
Method: (§1) Studies were conducted in a field in Knoxville, Tenn. to ascertain the growth, stress tolerance and nutritional quality differences following postemergence applications of herbicides mesotrione and atrazine, alone and in mixtures together, on the young sweet corn cultivars: ‘Merit’ (yellow-kernel sensitive genotype), ‘Temptation’ (bicolor tolerant genotype), and ‘Incredible’ (yellow-kernel moderately sensitive genotype).
(§2) Herbicide treatments were applied as follows: 1) untreated control; 2) mesotrione (meso) at 105 g ai/ha EPOST; 3) mesotrione at 105+atrazine at 560 g ai/ha EPOST; 4) atrazine at 560 g ai/ha EPOST; 5) mesotrione at 105 g ai/ha LPOST; 6) mesotrione at 105+atrazine at 560 g ai/ha LPOST; and 7) atrazine at 560 g ai/ha LPOST. Visual ratings of plant growth were taken during season, and kernels for carotenoids were measured at harvest.

[4] = system: sweet corn cultivars 'Merit', 'Temptation', 'Incredible'; test: Visual leaf tissue bleaching of sweet corn (Example 3, Table 9); type: in vivo; conditions: mesotrione 105, atrazine 560 g ai/ha
Method: as §1, §2

'Riviera' bermudagrass = test: Visual tissue whitening of bermudagrass after mesotrione (Example 5); type: in vivo, Cynodon dactylon (L.) Pers.; conditions: 0.28 kg/ha postemergence
Source text: Greenhouse and laboratory studies were initiated with ‘Riviera’ bermudagrass (Cynodon dactylon (L.) Pers.) treated postemergence with mesotrione at 0.28 kg×ha^−1 and sampled for tissue pigment concentrations at 0, 3, 7, 14, 21, 28 and 35 days after treatment (DAT; Table 16). […] Due to the antioxidant activity of these carotenoid pigments, these increases should improve bermudagrass stress tolerance (Kopsell et al., 2010).

[5] = 'Incredible' moderately sensitive genotype, EPOST
[6] = 'Incredible' moderately sensitive genotype, LPOST
[7] = 'Merit' sensitive genotype, EPOST
[8] = 'Merit' sensitive genotype, LPOST

With `CS(=O)(=O)c1ccc(C(=O)C2C(=O)CCCC2=O)c([N+](=O)[O-])c1` [Mesotrione*CALLISTO, mesotrione] the “Acid DF” value [1] was 10 % of check, the Alanine [1] was 4 % of check and the “Amino Acid” value [1] was 6 % of check. The Aspartic ac [1] was 7 % of check, the Cysteine [1] was 6 % of check and the Glutamic ac [1] was 6 % of check. The Glycine [1] was 4 % of check, the Isoleucine [1] was 6 % of check and the Leucine [1] was 6 % of check. For the same compound, the Lysine [1] was 12 % of check, the Methionine [1] was 2 % of check and the “Neutral DF” value [1] was 13 % of check. For the same compound, the Proline [1] was 9 % of check, the Protein [1] was 7 % of check and the Threonine [1] was 16 % of check. For the same compound, the Valine [1] was 7 % of check, the calcium [1] was 0 % of check and the copper [1] was 0 % of check. For the same compound, the iron [1] was 21 % of check, the magnesium [1] was 20 % of check and the manganese [1] was 25 % of check. The mon fattyac [1] was 9 % of check, the phosphorous [1] was 12 % of check and the polyfattyac [1] was 12 % of check. For the same compound, the potassium [1] was 12 % of check, the sat fattyac [1] was 7 % of check and the sodium [1] was 21 % of check. The tot fattyac [1] was 11 % of check, the zinc [1] was 16 % of check and the “Fructose, percent increase” value [2] was 18%. The “Gamma-tocopherol, percent increase” value [2] was 5%, the “Glucose, percent increase” value [2] was 19% and the “Lutein, percent increase” value [2] was 17%. For the same compound, the “Maltose, percent increase” value [2] was 15%, the “Sucrose, percent increase” value [2] was −32% and the “Total Sugars, percent increase” value [2] was −4%. For the same compound, the “Zeaxanthin, percent increase” value [2] was 1%, the “antheraxanthin, percent increase” value [2] was 14% and the “Lutein % change from untreated control” value [3, 5] was −6.4%. For the same compound, the “Zeaxanthin % change from untreated control” value (“Zeaxanthin % change” below) [3, 5] was −7.4%, the “Kernel carotenoids: Lutein” value ([3]; 'Incredible' moderately sensitive genotype, EPOST, untreated 0.328) was 0.307 and the “Kernel carotenoids: Zeaxanthin” value ([3]; 'Incredible' moderately sensitive genotype, EPOST, untreated 0.448) was 0.415. For the same compound, the “Lutein % change from untreated control” value [3, 6] was “+4.6%”, the “Zeaxanthin % change” value [3, 6] was “+1.3%” and the “Kernel carotenoids: Lutein” value ([3]; 'Incredible' moderately sensitive genotype, LPOST, untreated 0.328) was 0.343. For the same compound, the “Kernel carotenoids: Zeaxanthin” value ([3]; 'Incredible' moderately sensitive genotype, LPOST, untreated 0.448) was 0.454, the “Lutein % change from untreated control” value [3, 7] was “+7.8%” and the “Zeaxanthin % change” value [3, 7] was “+12.0%”. The “Kernel carotenoids: Zeaxanthin” value ([3]; 'Merit' sensitive genotype, EPOST, untreated 0.509) was 0.570, the “Kernel carotenoids: Lutein” value [3, 8] was 0.577 and the “Lutein % change from untreated control” value [3, 8] was “+8.7%”. The “Zeaxanthin % change” value [3, 8] was −3.7%, the “Kernel carotenoids: Zeaxanthin” value ([3]; 'Merit' sensitive genotype, LPOST, untreated 0.509) was 0.409 and the “Leaf Tissue Visual Bleaching (%)” value ([4]; ‘Incredible’, 7 DAT, EPOST) was 16%. The “Leaf Tissue Visual Bleaching (%)” value ([4]; ‘Incredible’, 7 DAT, LPOST) was 11%, the “Leaf Tissue Visual Bleaching (%)” value ([4]; ‘Incredible’, 14 DAT, EPOST) was 9% and the “Leaf Tissue Visual Bleaching (%)” value ([4]; ‘Incredible’, 14 DAT, LPOST) was 9%. The “Leaf Tissue Visual Bleaching (%)” value ([4]; ‘Incredible’, 21 DAT, EPOST) was 8%, the “Leaf Tissue Visual Bleaching (%)” value ([4]; ‘Incredible’, 21 DAT, LPOST) was 1% and the “Leaf Tissue Visual Bleaching (%)” value ([4]; ‘Merit’, 7 DAT, EPOST) was 61%. The “Leaf Tissue Visual Bleaching (%)” value ([4]; ‘Merit’, 7 DAT, LPOST) was 34%, the “Leaf Tissue Visual Bleaching (%)” value ([4]; ‘Merit’, 14 DAT, EPOST) was 53% and the “Leaf Tissue Visual Bleaching (%)” value ([4]; ‘Merit’, 14 DAT, LPOST) was 29%. For the same compound, the “Leaf Tissue Visual Bleaching (%)” value ([4]; ‘Merit’, 21 DAT, EPOST) was 44%, the “Leaf Tissue Visual Bleaching (%)” value ([4]; ‘Merit’, 21 DAT, LPOST) was 9% and the “visual tissue whitening, maximum” value ('Riviera' bermudagrass; by 14 DAT) was 38%. The “recovery of discolored tissue” value ('Riviera' bermudagrass; by 21 DAT) was “re-greening of discolored tissue was observed”.

From patent US20110053773A1, “METHODS OF IMPROVING NUTRITIONAL VALUE OF PLANTS” (UNIVERSITY OF TENNESSEE RESEARCH FOUNDATION, priority 2009, published 2011)
